{"source": "ChEMBL document CHEMBL1201862", "about": "“PubChem BioAssay data set” (2004)", "assay_in_all_cases": "NCI tumour cell line growth inhibition, 48 h", "key": {"[1]": {"tested_on": "NCI/ADR-RES"}, "[2]": {"tested_on": "MOLT-4"}, "[3]": {"tested_on": "SK-OV-3"}, "[4]": {"tested_on": "Malme-3M"}, "[5]": {"tested_on": "COLO 205"}, "[6]": {"tested_on": "MCF7"}, "[7]": {"tested_on": "SF-268"}, "[8]": {"tested_on": "SF-295"}, "[9]": {"tested_on": "LOX IMVI"}, "[10]": {"tested_on": "A549"}, "[11]": {"tested_on": "M14"}, "[12]": {"tested_on": "HCT-15"}, "[13]": {"tested_on": "HCC 2998"}, "[14]": {"tested_on": "IGROV-1"}, "[15]": {"tested_on": "OVCAR-5"}, "[16]": {"tested_on": "OVCAR-8"}, "[17]": {"tested_on": "CCRF-CEM"}, "[18]": {"tested_on": "NCI-H23"}, "[19]": {"tested_on": "SNB-75"}, "[20]": {"tested_on": "SK-MEL-5"}}, "note": "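A five-concentration, 48-hour dose response in 96-well plates underlies each endpoint, interpolated linearly between surrounding concentrations. GI50 = concentration required for 50% inhibition of growth.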 Active and inactive are the calls of the source. No stated cut-off is given here; in the data, active = GI50 up to about 1.1 µM and inactive = higher."}
{"smiles": "C[C@]12CC[C@H]3[C@@H](CC=C4C[C@@H](O)CC[C@@]43C)[C@@H]1C/C(=C\\c1ccc([N+](=O)[O-])cc1)[C@@H]2O", "values": [{"measurement": "GI50", "setting": "[1]", "value": "12.5 µM (inactive)"}, {"measurement": "GI50", "setting": "[2]", "value": "4.18 µM (inactive)"}, {"measurement": "GI50", "setting": "[3]", "value": "13.7 µM (inactive)"}, {"measurement": "GI50", "setting": "[4]", "value": "16 µM (inactive)"}, {"measurement": "GI50", "setting": "[5]", "value": "15.1 µM (inactive)"}, {"measurement": "GI50", "setting": "[6]", "value": "6.71 µM (inactive)"}, {"measurement": "GI50", "setting": "[7]", "value": "26.1 µM (inactive)"}, {"measurement": "GI50", "setting": "[8]", "value": "16.8 µM (inactive)"}, {"measurement": "GI50", "setting": "[9]", "value": "18.8 µM (inactive)"}, {"measurement": "GI50", "setting": "[10]", "value": "10.4 µM (inactive)"}, {"measurement": "GI50", "setting": "[11]", "value": "22.7 µM (inactive)"}, {"measurement": "GI50", "setting": "[12]", "value": 10.9, "unit": "µM"}, {"measurement": "GI50", "setting": "[13]", "value": "11.7 µM (inactive)"}, {"measurement": "GI50", "setting": "[14]", "value": "26 µM (inactive)"}, {"measurement": "GI50", "setting": "[15]", "value": "25.2 µM (inactive)"}, {"measurement": "GI50", "setting": "[16]", "value": "10.9 µM (inactive)"}, {"measurement": "GI50", "setting": "[17]", "value": "5.14 µM (inactive)"}, {"measurement": "GI50", "setting": "[18]", "value": "9.98 µM (inactive)"}, {"measurement": "GI50", "setting": "[19]", "value": "17.4 µM (inactive)"}, {"measurement": "GI50", "setting": "[20]", "value": "6.81 µM (inactive)"}]}
